# Data taken from ChEMBL document CHEMBL1155409, “Ultrasmall particle of iron oxide--RGD peptidomimetic conjugate: synthesis and characterisation” (Bioorg Med Chem Lett, 2010).
# Target: Integrin alpha-V/beta-3 (Homo sapiens)
# Assay: Inhibition of human Integrin alphaVbeta3 isolated receptors assessed by standard competitive binding assay
row,IC50 [nM],Structure (SMILES)
1,0.3,COCCOCCOCCOCC(=O)Nc1cc(C[C@H](NS(=O)(=O)c2cccc(C(F)(F)F)c2)C(=O)O)ccc1OCCCc1ccc2c(n1)NCCC2
2,0.1,Nc1cc(C[C@H](NS(=O)(=O)c2cccc(C(F)(F)F)c2)C(=O)O)ccc1OCCCc1ccc2c(n1)NCCC2
3,0.7,NCCOCCOCCOCCOCCOCCOCC(=O)Nc1cc(C[C@H](NS(=O)(=O)c2cccc(C(F)(F)F)c2)C(=O)O)ccc1OCCCc1ccc2c(n1)NCCC2
